{
  "source": "patent US5196437A",
  "about": "“Method for treating hepatic diseases and regenerating liver tissue using FK 506 and related compounds” (Fujisawa Pharmaceutical Company, Ltd., priority 1990, dated 1993)",
  "key": {"hepatocytes": {"test_system": "hepatocytes", "assay": "Eck fistula dogs, left portal vein infusion: hepatocyte size and 3H-thymidine labelled hepatocytes", "type": "in vivo, dog (beagle)", "conditions": "for Labeled Hepatocytes/1000 Hepatocytes, Left / Hepatocytes Size Units, Left: left (infused) lobe; for Labeled Hepatocytes/1000 Hepatocytes, Left / Hepatocytes Size Units, Left / Hepatocytes Size Units, Right / Labeled Hepatocytes/1000 Hepatocytes, Right: mean +/- SD; for Hepatocytes Size Units, Right / Labeled Hepatocytes/1000 Hepatocytes, Right: right lobe", "procedure": "(§1) Twenty adult female beagle dogs underwent Eck fistula (Starzl et al, Lancet, 1976, 1:821-25). After performing a large side to side portacaval shunt, the left and right portal vein branches were ligated. A small infusion catheter was tied into the left branch and led through the abdominal wall and subcutaneously to a battery charged infusion pump that was incorporated into a non-restraining body cast. A constant infusion was started of the control or test fluids at the volume of 20 to 30 ml/day. Oral fluids and diet were allowed ad lib. Four days later, the animals were administered 0.2 mCi/kg (CH3 -^3 H)-thymidine with specific activity of 80-90 Ci/MMol (New England Nuclear, Boston). Two hours later, the dogs were anesthetized and killed.\nSpecimens were taken from 2 of the right hepatic lobes and 2 of the left lobes, fixed in 10% buffered formalin, and stained using standard hematoxylin-eosin staining techniques.\nAutoradiography was carried out using Ilford K5 nuclear track liquid emulsion and an exposure time of at least 30 days. The number of mitoses, as an index of hepatocyte regeneration, was determined by counting the number of ^3 H-thymidine labelled nuclei per 1000 hepatocytes. […] In normal, unaltered dogs, about 1.6±0.4 mitosis per 1000 hepatocytes are present in the liver, and midzonal hepatocytes are about 0.17±0.01 size-units (Starzl et al, Lancet, 1979, 1:127-130). The exceptional reproducibility of these values and the small standard deviations make it easy to identify changes caused by operations such as Eck fistula, drugs, or other experimental variables.\n(§2) Results are expressed as mean±standard deviation (SD). The Student's t-test was employed in individual experimental groups to compare differences between right and left lobes or between groups. A p value less than 0.05 was considered to be significant."}, "hepatocytes in culture": {"test_system": "hepatocytes in culture", "conditions": "literature (Francavilla et al); cited from earlier work"}, "[1]": {"test_system": "hepatocytes / rat liver regeneration", "assay": "Rat liver regeneration (3H-thymidine incorporation into hepatic DNA and hepatocyte mitosis) after sham operation or 40%/70% hepatectomy", "type": "in vivo, rat (Fisher 344)", "conditions": "for 3H-thymidine incorporation / Proportion of hepatocytes in mitosis: 4 days, mean (SE)", "procedure": "Adult male inbred Fisher 344 rats weighing 180-200 g were purchased from Hilltop Lab Animals Inc (Scottdale, Pa.). The animals were given standard rat laboratory diet and water ad libitum in a temperature and light controlled room (light 0730-1930). […] Animals in groups 3 and 4 had sham operations in which the liver was manipulated at laparotomy. Food and drink were allowed immediately. Parenteral fluid and electrolyte support were not required.\n24 h after the hepatectomies, 185×10^4 Bq ^3 H-thymidine was administered to all rats by intraperitoneal injection. The rats, including groups 1 and 2, were killed 2 h later by guillotine. Extraction and purification of hepatic DNA were done with the method of Ove et al (Liver and hormones, New York: Raven Press, 1987:265-76) and DNA content was measured with calf thymus DMA (Sigma) as standard. Specimens from each liver were prepared for histological examination with hematoxylin and eosin and the proportion of hepatocytes in mitosis was counted. All results are means and SE."}, "[2]": {"test_system": "acute and chronic liver allograft rejection", "conditions": "humans; compared with previous compounds; cited from earlier work"}, "midzonal hepatocytes": {"test_system": "midzonal hepatocytes", "assay": "Eck fistula dogs, left portal vein infusion: electron microscopy of hepatocyte organelles", "type": "in vivo, dog (beagle)", "conditions": "0.01 mg/kg/day, mean +/- SD", "procedure": "as §1\nFor studies of the organelles, small cubes of each hepatic sample were taken for electron microscopy. The tissue was post-fixed in glutaraldehyde followed by osmic acid. After embedding in Polarbed. 812 resin, ultrathin sections were cut, stained with lead citrate and examined in a Philip's 300 electron microscope. Measurements of the organelles were made on electron micrographs by Loud's method (Loud, J Cell Biol, 1968, 37:27-46).\nas §2"}, "[3]": {"conditions": "infused into the left portal vein"}, "[4]": {"conditions": "group 2: FK 506 1 mg/kg IM, no operation"}, "[5]": {"conditions": "group 10: FK 506 1 mg/kg IM, 70% hepatectomy, p < 0.01 vs group 8"}},
  "data": [
    {"smiles": "C=CCC1C=C(C)CC(C)CC(OC)C2OC(O)(C(=O)C(=O)N3CCCCC3C(=O)OC(C(C)=CC3CCC(O)C(OC)C3)C(C)C(O)CC1=O)C(C)CC2OC", "note": "(centres unmarked) [FK 506]", "values": [
      {"measurement": "Labeled Hepatocytes/1000 Hepatocytes, Left", "setting": "hepatocytes; 0.01 mg/kg/day, p vs vehicle 0.0044, left vs right 0.0167", "value": "5.43 +/- .35 Labeled Hepatocytes/1000 Hepat"},
      {"measurement": "Hepatocytes Size Units, Left", "setting": "hepatocytes; 0.01 mg/kg/day, p vs vehicle 0.5782, left vs right 0.0004", "value": ".111 +/- .008 Size Units"},
      {"measurement": "Hepatocytes Size Units, Right", "setting": "hepatocytes; 0.01 mg/kg/day, p vs vehicle 0.1860", "value": ".100 +/- .007 Size Units"},
      {"measurement": "Labeled Hepatocytes/1000 Hepatocytes, Right", "setting": "hepatocytes; 0.01 mg/kg/day, p vs vehicle 0.2477", "value": "4.77 +/- .60 Labeled Hepatocytes/1000 Hepat"},
      {"measurement": "Labeled Hepatocytes/1000 Hepatocytes, Left", "setting": "hepatocytes; 0.1 mg/kg/day, p vs vehicle 0.0005, left vs right 0.0001", "value": "5.98 +/- .43 Labeled Hepatocytes/1000 Hepat"},
      {"measurement": "Hepatocytes Size Units, Left", "setting": "hepatocytes; 0.1 mg/kg/day, p vs vehicle 0.0065, left vs right 0.0000", "value": ".137 +/- .008 Size Units"},
      {"measurement": "Labeled Hepatocytes/1000 Hepatocytes, Right", "setting": "hepatocytes; 0.1 mg/kg/day, p vs vehicle 0.0086", "value": "5.19 +/- .38 Labeled Hepatocytes/1000 Hepat"},
      {"measurement": "Hepatocytes Size Units, Right", "setting": "hepatocytes; 0.1 mg/kg/day, p vs vehicle 0.8351", "value": ".113 +/- .006 Size Units"},
      {"measurement": "Labeled Hepatocytes/1000 Hepatocytes, Left", "setting": "hepatocytes; 1.0 mg/kg/day, p vs vehicle 0.0001, left vs right 0.0015", "value": "9.13 +/- .89 Labeled Hepatocytes/1000 Hepat"},
      {"measurement": "Hepatocytes Size Units, Left", "setting": "hepatocytes; 1.0 mg/kg/day, p vs vehicle 0.0004, left vs right 0.0009", "value": ".162 +/- .012 Size Units"},
      {"measurement": "Hepatocytes Size Units, Right", "setting": "hepatocytes; 1.0 mg/kg/day, p vs vehicle 0.0503", "value": ".134 +/- .006 Size Units"},
      {"measurement": "Labeled Hepatocytes/1000 Hepatocytes, Right", "setting": "hepatocytes; 1.0 mg/kg/day, p vs vehicle 0.0510", "value": "5.37 +/- .78 Labeled Hepatocytes/1000 Hepat"},
      {"measurement": "changes in directly infused lobes compared with non-infused lobes", "setting": "hepatocytes; all doses", "value": "significantly greater in the directly infused lobes at all doses"},
      {"measurement": "changes in non-infused lobes compared to vehicle controls", "setting": "hepatocytes; high FK 506 doses", "value": "significantly effected compared to the vehicle controls"},
      {"measurement": "atrophy of the left lobar hepatocytes", "setting": "hepatocytes; [3]", "value": "prevented in proportion to the dose"},
      {"measurement": "rate of mitoses", "setting": "hepatocytes; [3]", "value": "increased"},
      {"measurement": "evidence of drug toxicity in infused lobes", "setting": "hepatocytes; lobes infused with FK 506", "value": "no evidence of drug toxicity"},
      {"measurement": "direct effect on hepatocytes in culture", "setting": "hepatocytes in culture", "value": "no direct effect"},
      {"measurement": "regeneration after hepatectomy compared with controls", "setting": "[1]; 4 days pretreatment, intramuscular FK 506 or oral cyclosporin", "value": "significantly augmented compared with controls"},
      {"measurement": "hepatocyte mitosis and DNA synthesis in sham operation group", "setting": "[1]; FK 506 added to sham operation", "value": "further and significantly increased"},
      {"measurement": "3H-thymidine incorporation", "setting": "[1]; [4]", "value": "3.2 × 10^3 cpm/mg DNA"},
      {"measurement": "Proportion of hepatocytes in mitosis", "setting": "[1]; [4]", "value": 1.7, "unit": "%"},
      {"measurement": "3H-thymidine incorporation", "setting": "[1]; group 4: FK 506 1 mg/kg IM, sham operation, p < 0.005 vs groups 1, 2 and 3", "value": "10.5 × 10^3 cpm/mg DNA"},
      {"measurement": "Proportion of hepatocytes in mitosis", "setting": "[1]; group 4: FK 506 1 mg/kg IM, sham operation, p < 0.05 vs groups 1 and 2", "value": 9.5, "unit": "%"},
      {"measurement": "3H-thymidine incorporation", "setting": "[1]; group 6: FK 506 1 mg/kg IM, 40% hepatectomy, p < 0.001 vs group 5", "value": "32.4 × 10^3 cpm/mg DNA"},
      {"measurement": "3H-thymidine incorporation", "setting": "[1]; [5]", "value": "242.0 × 10^3 cpm/mg DNA"},
      {"measurement": "Proportion of hepatocytes in mitosis", "setting": "[1]; [5]", "value": 59.0, "unit": "%"},
      {"measurement": "regeneration effect, FK 506 compared with cyclosporin", "setting": "[1]; group 10 compared with group 9, 70% hepatectomy", "value": "greater with FK 506 than with cyclosporin"},
      {"measurement": "resting hepatocyte mitosis or DNA synthesis", "setting": "[1]; unoperated rats", "value": "did not increase"},
      {"measurement": "acute and chronic liver allograft rejection", "setting": "[2]", "value": "prevent acute and chronic liver allograft rejection in humans more reliably and completely than has been possible with previous compounds"},
      {"measurement": "Organelle volume in average midzonal hepatocytes, Lipids, Left", "setting": "midzonal hepatocytes; left (infused) lobe, left vs right p 0.0012", "value": "23.3 +/- 8.8 uM^3"},
      {"measurement": "Organelle volume in average midzonal hepatocytes, Lysosomes, Left", "setting": "midzonal hepatocytes; left (infused) lobe, left vs right p 0.0017", "value": "62.3 +/- 15.1 uM^3"},
      {"measurement": "Organelle volume in average midzonal hepatocytes, Microbodies, Left", "setting": "midzonal hepatocytes; left (infused) lobe, left vs right p 0.0080", "value": "99.2 +/- 11.8 uM^3"},
      {"measurement": "Organelle volume in average midzonal hepatocytes, Mitochondria, Left", "setting": "midzonal hepatocytes; left (infused) lobe, left vs right p 0.1903", "value": "1233.7 +/- 222.4 uM^3"},
      {"measurement": "Area of rough endoplasmic reticulum per average midzonal hepatocyte, Left", "setting": "midzonal hepatocytes; left (infused) lobe, p vs vehicle 0.0000, left vs right 0.0001", "value": "26332 +/- 1483 uM^2"},
      {"measurement": "Area of smooth endoplasmic reticulum per average midzonal hepatocyte, Left", "setting": "midzonal hepatocytes; left (infused) lobe, p vs vehicle 0.0661, left vs right 0.0000", "value": "18433 +/- 535 uM^2"},
      {"measurement": "Organelle volume in average midzonal hepatocytes, Lipids, Right", "setting": "midzonal hepatocytes; right lobe", "value": "81.0 +/- 15.1 uM^3"},
      {"measurement": "Organelle volume in average midzonal hepatocytes, Lysosomes, Right", "setting": "midzonal hepatocytes; right lobe", "value": "162.6 +/- 48.9 uM^3"}
    ]}
  ]
}
